Data taken from the NIST ThermoML archive (doi:10.1021/je800463k).

Experiment: mn = molality of the nth substance listed, in mol/kg
Conditions: 101 kPa, Liquid; for mass density: Pycnometric method; for electrical conductivity: Frequency=0.001 MHz, Alternating current cell with electrodes; for speed of sound: Frequency=2 MHz

[Mg+2].[O-][Cl+3]([O-])([O-])[O-].[O-][Cl+3]([O-])([O-])[O-] [magnesium perchlorate] + CO
Conditions	electrical conductivity [S/m]	mass density [kg/m3]	speed of sound [m/s]	viscosity [mPa·s]
301.65 K, m1 = 0.0925	–	796.87	–	–
302.7 K, m1 = 0.3228	–	824.56	–	–
302.75 K, m1 = 0.2872	–	820.44	–	–
302.75 K, m1 = 2	–	1006.5	–	–
302.9 K, m1 = 0.078	–	794.53	–	–
303.05 K, m1 = 0.1673	–	805.22	–	–
303.15 K, m1 = 0.0542	0.3785	–	1094.8	0.5431
303.15 K, m1 = 0.078	0.5625	–	1101.6	–
303.15 K, m1 = 0.0925	0.6223	–	1104.6	0.5669
303.15 K, m1 = 0.1673	0.9485	–	1114	0.6084
303.15 K, m1 = 0.2872	1.407	–	1129.8	0.684
303.15 K, m1 = 0.3228	1.534	–	1133.5	0.7005
303.15 K, m1 = 0.4313	1.913	–	1147	0.7937
303.15 K, m1 = 0.6444	2.541	–	1173.3	0.9348
303.15 K, m1 = 1.059	3.367	–	1217	1.323
303.15 K, m1 = 1.395	3.746	–	1253.3	1.732
303.15 K, m1 = 1.717	3.979	–	1277.6	1.99
303.15 K, m1 = 2	4.1	–	1301.6	2.362
303.5 K, m1 = 0.4313	–	838.73	–	–
303.55 K, m1 = 1.059	–	918.43	–	–
303.55 K, m1 = 1.717	–	980.32	–	–
303.9 K, m1 = 0.0542	–	788.92	–	–
304.2 K, m1 = 0.0925	–	794.46	–	–
304.55 K, m1 = 1.395	–	955.29	–	–
304.85 K, m1 = 0.6444	–	864.55	–	–
305.45 K, m1 = 0.2872	–	817.88	–	–
305.5 K, m1 = 0.078	–	792.01	–	–
305.5 K, m1 = 0.3228	–	821.98	–	–
305.7 K, m1 = 0.1673	–	802.67	–	–
305.75 K, m1 = 1.059	–	916.49	–	–
305.95 K, m1 = 0.6444	–	863.6	–	–
306 K, m1 = 1.717	–	978.23	–	–
306.55 K, m1 = 0.4313	–	836.04	–	–
306.6 K, m1 = 0.0542	–	786.39	–	–
306.65 K, m1 = 2	–	1003.3	–	–
306.8 K, m1 = 0.0925	–	791.94	–	–
306.95 K, m1 = 1.395	–	953.22	–	–
307.15 K, m1 = 0.078	–	790.37	–	–
307.25 K, m1 = 0.2872	–	816.19	–	–
307.3 K, m1 = 0.3228	–	820.29	–	–
307.35 K, m1 = 0.1673	–	801.01	–	–
308 K, m1 = 1.059	–	914.51	–	–
308.05 K, m1 = 0.6444	–	861.75	–	–
308.35 K, m1 = 0.0542	–	784.7	–	–
308.45 K, m1 = 1.717	–	976.24	–	–
308.5 K, m1 = 0.4313	–	834.26	–	–
309.25 K, m1 = 2	–	1001.1	–	–
309.3 K, m1 = 1.395	–	951.18	–	–
309.35 K, m1 = 0.0925	–	789.49	–	–
309.7 K, m1 = 0.078	–	787.95	–	–
309.9 K, m1 = 0.2872	–	813.69	–	–
309.95 K, m1 = 0.3228	–	817.77	–	–
310.85 K, m1 = 1.717	–	974.13	–	–
311.05 K, m1 = 0.0542	–	782.22	–	–
311.05 K, m1 = 0.0925	–	787.88	–	–
311.15 K, m1 = 0.6444	–	859.02	–	–
311.4 K, m1 = 0.4313	–	831.61	–	–
311.45 K, m1 = 1.059	–	911.67	–	–
311.55 K, m1 = 1.395	–	949.18	–	–
311.75 K, m1 = 0.1673	–	796.89	–	–
311.75 K, m1 = 2	–	999.04	–	–
312.55 K, m1 = 0.2872	–	811.13	–	–
312.6 K, m1 = 0.3228	–	815.21	–	–
313.15 K, m1 = 0.0542	0.4141	–	1062.7	0.4735
313.15 K, m1 = 0.078	0.6138	–	1069.7	–
313.15 K, m1 = 0.0925	0.6801	–	1072.7	0.4938
313.15 K, m1 = 0.1673	1.04	–	1082.2	0.5284
313.15 K, m1 = 0.2872	1.549	–	1098.9	0.5874
313.15 K, m1 = 0.3228	1.691	–	1102.5	0.6082
313.15 K, m1 = 0.4313	2.119	–	1115.5	0.6824
313.15 K, m1 = 0.6444	2.844	–	1141.6	0.7966
313.15 K, m1 = 1.059	3.813	–	1185.5	1.119
313.15 K, m1 = 1.395	4.297	–	1224.6	1.445
313.15 K, m1 = 1.717	4.592	–	1249.9	1.656
313.15 K, m1 = 2	4.75	–	1273.8	1.945
313.25 K, m1 = 0.4313	–	829.89	–	–
313.25 K, m1 = 1.717	–	972.12	–	–
313.35 K, m1 = 0.1673	–	795.24	–	–
313.6 K, m1 = 0.0542	–	779.81	–	–
313.75 K, m1 = 1.395	–	947.21	–	–
314.05 K, m1 = 0.6444	–	856.37	–	–
314.15 K, m1 = 2	–	996.96	–	–
314.65 K, m1 = 1.059	–	908.74	–	–
315.1 K, m1 = 0.2872	–	808.66	–	–
315.2 K, m1 = 0.3228	–	812.71	–	–
315.8 K, m1 = 0.1673	–	792.81	–	–
315.85 K, m1 = 0.6444	–	854.66	–	–
315.9 K, m1 = 1.395	–	945.34	–	–
316 K, m1 = 0.4313	–	827.39	–	–
316.1 K, m1 = 0.0542	–	777.42	–	–
316.75 K, m1 = 1.717	–	969.14	–	–
317.85 K, m1 = 1.059	–	906.01	–	–
317.9 K, m1 = 2	–	993.97	–	–
318.5 K, m1 = 0.0542	–	774.98	–	–
318.5 K, m1 = 0.6444	–	851.96	–	–
318.65 K, m1 = 0.4313	–	824.78	–	–
319 K, m1 = 1.717	–	967.11	–	–
319.3 K, m1 = 1.395	–	942.34	–	–
320.05 K, m1 = 0.0542	–	773.35	–	–
320.15 K, m1 = 2	–	991.84	–	–
320.2 K, m1 = 0.6444	–	850.2	–	–
320.65 K, m1 = 1.059	–	903.14	–	–
321.15 K, m1 = 0.4313	–	822.18	–	–
322.3 K, m1 = 2	–	989.79	–	–
322.35 K, m1 = 1.717	–	964.07	–	–
322.45 K, m1 = 1.059	–	901.27	–	–
322.5 K, m1 = 1.395	–	939.42	–	–
